Experimental data taken from US10059655B2, “Lipids and lipid compositions for the delivery of active agents” (priority 2013, dated 2018).

Tests used:
[1] = Measurement of siRNA encapsulation (SYBR Gold fluorescence); format: physicochemical; details: for % Encap.: FVII siRNA; for % encapsulation siRNA FVII: FVII siRNA in LNP
Protocol: The lipid nanoparticles (LNPs) were formed by mixing equal volumes of lipids dissolved in alcohol with siRNA dissolved in a citrate buffer by an impinging jet process. The lipid solution contains a cationic lipid compound of the invention, a helper lipid (cholesterol), an optional neutral lipid (DSPC) and a stealth lipid (S010, S024, S027, or S031) at a concentration of 8-16 mg/mL with a target of 12 mg/mL in an alcohol. The siRNA to total lipid ratio is approximately 0.05 (wt/wt). Where a LNP formulation contains four lipid components, the molar ratios of the lipids ranges from 20 to 70 mole percent for the cationic lipid with a target of 40-60, the mole percent of helper lipid ranges from 20 to 70 with a target of 30 to 50, the mole percent of neutral lipid ranges from 0-30, the mole percent of PEG lipid has a range from 1 to 6 with a target of 2 to 5. The concentration of siRNA solution ranges from 0.7 to 1.0 mg/mL with a target of 0.8 to 0.9 mg/mL in a sodium citrate: sodium chloride buffer pH 4-6, with a target of 4.5-5.5. The LNPs are formed by mixing equal volumes of lipid solution in ethanol with siRNA dissolved in a citrate buffer by an impinging jet process through a mixing device with ID ranging from 0.25 to 2.0 mm at a flow rate from 10 to 640 mL/min. The mixed LNP solution is held at room temperature for 0-24 hrs prior to a dilution step. The solution is then concentrated and diafiltered with suitable buffer by ultrafiltration process using membranes with a MW cutoff from 30 to 500 KD. The final product is sterile filtered and stored at 4° C.
SYBR Gold flourescence reagent is used for the determination of siRNA encapsulation in the DLP's. DLP's with and without triton x-100 are used to determine the free siRNA and total siRNA amounts. DLP's samples with and without triton X-100 were excited at 485 nm and flourescence emission is measured at 530 nm. Encapsulation efficiency is calculated based on the following formula: Encapsulation efficiency: [(free siRNA concentration−total siRNA concentration)/(total siRNA concentration)]×100% Encapsulation Data

[2] = Particle size of the lipid nanoparticle (Z-average, dynamic light scattering, Malvern Zetasizer); format: physicochemical; details: for Size 1st IM / Size 2nd IM: RSV-F replicon RNA LNP, DLS; for Size 1st IM: 1st immunization; for Size 2nd IM: 2nd immunization
Excerpt: The lipid nanoparticles have a size of about 1 to about 2,500 nm, about 10 to about 1,500 nm, about 20 to about 1,000 nm, in a sub-embodiment about 50 to about 600 nm, in a sub-embodiment about 50 to about 400 nm, in a sub-embodiment about 50 to about 250 nm, and in a sub-embodiment about 50 to about 150 nm. Unless indicated otherwise, all sizes referred to herein are the average sizes (diameters) of the fully formed nanoparticle, as measured by dynamic light scattering on a Malvern Zetasizer. The nanoparticle sample is diluted in phosphate buffered saline (PBS) so that the count rate is approximately 200-400 kcts. The data is presented as a weighted average of the intensity measure.
Unless indicated otherwise, all particle size measurements referred to in Table 3 are the Z-average particle size of the fully formed nanoparticle, as measured by dynamic light scattering on a Malvern Zetasizer. The nanoparticle sample was diluted in phosphate buffered saline (PBS) so that the count rate is approximately 200-400 kcts.
% entrapment (% E), Concentration of RNA (Conc), particle size measured by DLS, and polydispersity reported by DLS of LNPs prepared with different cationic lipids

[3] = test system: hLeptin; test: Human leptin in mouse plasma (ELISA) after IV tail vein injection of encapsulated leptin mRNA; format: in vivo; details: 0.4 mpk, C57 mice, @ 24 h
Protocol: Human leptin in mouse plasma was measured by ELISA. Antibodies purchased from the R&D Systems duoset (Cat# DY398E, part#840279 for capture antibody and part#840280 for detection antibody) were reconstituted using PBS and titered, again using PBS. The capture antibody was coated at 4 ug/ml in 30 ul/well on a white Nunc® Maxisorp 384 well plate (Cat#460372). After an overnight incubation at room temperature the capture antibody was aspirated and the plate blocked for 2 hours at room temperature with 90 ul/well of KPL milk blocker (Cat#50-82-00). Once the incubation was completed the plate was aspirated and recombinant standards and samples were added to the plate at 30 ul/well for 2 hours at 37° C. while shaking at 600 rpm. Sample/standard dilutions were made using casein sample diluent. Washing/aspiration 3 times with 100 ul/well followed, using Teknova plate wash solution (Cat# P1192). […] The plate was quickly read using a SpectramaxM5 plate reader with a 50 ms integration time. […]
Before the tail vein injection, mouse body weights were recorded and diet weighted, with mice grouped according to their body weights. […]
On day 0, animals were weighed and sorted according to average body weight. Mice were dosed, and food intake (FI) was recorded, on each of days 1-7 and days 9, 11, and 16.

[4] = test system: RSV F protein; test: RSV immunogenicity: F-specific IgG titers after IM vaccination with liposome-formulated self-replicating RNA; format: in vivo; details: IM days 0 and 21, BALB/c mice, two weeks after two immunizations

SMILES | % Encap. [1] [%] | % encapsulation siRNA FVII [1] [%] | Size ([2]; FLuc mRNA) [nm] | Size ([2]; FVII siRNA) [nm] | Size ([2]; Gluc mRNA) [nm] | Size 1st IM [2] [nm] | Size 2nd IM [2] [nm] | Size ([2]; hFIX mRNA) [nm] | Size ([2]; hLep plasmid) [nm] | Size ([2]; hLeptin mRNA) [nm] | Size ([2]; mEPO mRNA) [nm] | Size ([2]; pDNA) [nm] | Expression of protein following IV injection of encapsulated mRNA: hLeptin [3] [ng/mL] | Immunogenicity (2wp2; log10 IgG titers) ([4]; 0.1 ng replicon RNA) [log10 IgG titers] | Immunogenicity (2wp2; log10 IgG titers) ([4]; 1 ng replicon RNA) [log10 IgG titers]
CCCCC/C=C\C/C=C\CCCCCCCC(=O)OCC(COC(=O)CCCCCCC/C=C\C/C=C\CCCCC)COC(=O)C1(C)CCN(C)C1 (stereo not shown) [Example 1, (9Z,9′Z,12Z,12′Z)-2-(((1,3-dimethylpyrrolidine-3-carbonyl)oxy)methyl)propane-1,3-diyl bis(octadeca-9,12-dienoate)] | 85.1 | 85.1 | 119.0 | 102.3 | 95.7 | 139.1 | 133.5 | 126.9 | 105.1 | 100.0 | 107.2 | 100.7 | 12.3 | 3.99 | 4.08
CCCCC/C=C\C/C=C\CCCCCCCC(=O)OCC(COC(=O)CCC(OCCCCCCCC)OCCCCCCCC)COC(=O)OCCCN(CC)CC (stereo not shown) [Example 13, (9Z,12Z)-3-((4,4-bis(octyloxy)butanoyl)oxy)-2-((((3-(diethylamino)propoxy)carbonyl)oxy)methyl)propyl octadeca-9,12-dienoate] | 88.1 | 88.1 | 121.9 | 101.5 | 90.8 | – | – | 122.4 | 121.5 | 127.6 | 113.7 | 95.12 | 3.8 | – | –
CCCCC/C=C\C/C=C\CCCCCCCC(=O)OCC(COC(=O)CCC(OCCCCCCCC)OCCCCCCCC)COC(=O)OCC1CCCN(CC)C1 (stereo not shown) [Example 15, (9Z,12Z)-3-((4,4-bis(octyloxy)butanoyl)oxy)-2-(((((1-ethylpiperidin-3-yl)methoxy)carbonyl)oxy)methyl)propyl octadeca-9,12-dienoate] | – | – | 100.7 | – | 84.7 | 144.7 | 139.4 | 96.8 | 94.5 | 119.8 | 90.1 | 86.9 | – | 4.45 | 4.63
